Experimental data: patent US20240391923A1, “METHIONINE ADENOSYLTRANSFERASE 2A INHIBITOR FOR TREATING MTAP DELETION-TYPE CANCER” (SUZHOU GENHOUSE BIO CO., LTD., priority 2022, published 2024)
Like-named read-outs stand apart in the source and are kept apart here.

How the values were obtained:
[1] = test system: SDMA in HCT116-MTAP-knockout cell line; assay: Cell symmetric dimethylarginine (SDMA) test, In-cell Western, HCT116-MTAP-knockout; type: cell-based; conditions: Homo sapiens, 96 h
[2] = test system: Hut-78 cell strain; assay: Tumor cell proliferation inhibition assay (CellTiter-Glo), Hut-78; type: cell-based; conditions: Homo sapiens, HuT78, 120 h, Hut-78 cells, 5-day treatment
Description: After the HCT116-MTAP-knockout (−/−) cell strain, the HCT116-MTAP wild-type(+/+)-cell strain, the DOHH-2 cell strain, or the Hut-78 cell strain was treated with the test compound for 5 days, the ATP level was measured using a CellTiter-Glo kit of Promega to evaluate the inhibition of the test compound against the growth of the tumor cell strain.
In the present application, the HCT116-MTAP-knockout (−/−) cell strain, the HCT116-MTAP wild-type (+/+)-cell strain, the DOHH-2 cell strain, or the Hut-78 cell strain was seeded into a 96-well cell culture plate at an appropriate cell density. After 24 h, the cells were treated using the test compounds diluted 1:3 fold at the highest concentration of 10 μM for 10 gradients, and a DMSO treatment group was set up separately. The cells were cultured in a 37° C./5% CO2 incubator for 5 days.

[3] = test system: HCT116-MTAP wild-type (+/+)-cell strain; assay: Tumor cell proliferation inhibition assay (CellTiter-Glo), HCT116-MTAP wild-type (+/+); type: cell-based; conditions: Homo sapiens, 120 h, HCT116-MTAP wild-type (+/+) cells, 5-day treatment
How it was run: (§1)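 Ten-point compound titration (1:3, highest 10 μM) started 24 h after plating, DMSO group included; cultures kept 5 days at 37° C. with 5% CO2 before CellTiter-Glo ATP readout of growth inhibition.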

[4] = test system: SDMA in human colon cancer cell line HCT116; assay: Cell symmetric dimethylarginine (SDMA) test, In-cell Western, HCT116 (MTAP wild-type); type: cell-based; conditions: Homo sapiens, HCT-116, 96 h
How it was run: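 SDMA level, an indirect readout of cellular MAT2A inhibition, measured by In-cell Western as background-subtracted 800/700 nm signal against DRAQ5. Cells exposed 4 days to six 1:4-diluted doses from 6 μM; inhibition relative to DMSO, IC50 from sigmoidal fit.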

[5] = target: MAT2A recombinant protein (Homo sapiens, UniProt P31153); assay: MAT2A inhibitory activity (malachite green colorimetric enzyme assay); type: biochemical
How it was run: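 Compounds tested over 10 points, 3-fold dilutions, top final concentration 1000 nM. Enzyme reaction: MAT2A, L-methionine, ATP, room temperature, 60 min, in HEPES pH 7.5 buffer with KCl, MgCl2 and DTT; inorganic phosphate read colorimetrically (malachite green, A630). Inhibition vs log concentration fitted for IC50.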

[6] = test system: HCT116-MTAP-knockout (−/−) cell strain; assay: Tumor cell proliferation inhibition assay (CellTiter-Glo), HCT116-MTAP-knockout (-/-); type: cell-based; conditions: Homo sapiens, 120 h, HCT116-MTAP-knockout (−/−) cells, 5-day treatment
How it was run: as §1

[7] = IC50 score class, read-out: Cell 96 h SDMA Inhibition (HCT116-MTAP−/−) (score)
[8] = read-out: Cell 96 h SDMA Inhibition (HCT116-MTAP−/−)
[9] = IC50 score, read-out: Tumor cell 5-day relative growth inhibition (Hut-78) (nM), score
[10] = IC50 value, read-out: Tumor cell 5-day relative growth inhibition (Hut-78)
[11] = IC50 score, read-out: Tumor cell 5-day relative growth inhibition (HCT116-MTAP+/+) (nM), score
[12] = IC50 value, read-out: Tumor cell 5-day relative growth inhibition (HCT116-MTAP+/+)
[13] = IC50 score class, read-out: Cell 96 h SDMA Inhibition (HCT116-MTAP+/+) (score)
[14] = read-out: Cell 96 h SDMA inhibition (HCT116-MTAP+/+)
[15] = IC50 score class, read-out: MAT2A Inhibition (score)
[16] = IC50 score, read-out: Tumor cell 5-day relative growth inhibition (HCT116-MTAP−/−) (nM), score
[17] = IC50 value, read-out: Tumor cell 5-day relative growth inhibition (HCT116-MTAP−/−)

Sequence of MAT2A recombinant protein (P31153 whole entry): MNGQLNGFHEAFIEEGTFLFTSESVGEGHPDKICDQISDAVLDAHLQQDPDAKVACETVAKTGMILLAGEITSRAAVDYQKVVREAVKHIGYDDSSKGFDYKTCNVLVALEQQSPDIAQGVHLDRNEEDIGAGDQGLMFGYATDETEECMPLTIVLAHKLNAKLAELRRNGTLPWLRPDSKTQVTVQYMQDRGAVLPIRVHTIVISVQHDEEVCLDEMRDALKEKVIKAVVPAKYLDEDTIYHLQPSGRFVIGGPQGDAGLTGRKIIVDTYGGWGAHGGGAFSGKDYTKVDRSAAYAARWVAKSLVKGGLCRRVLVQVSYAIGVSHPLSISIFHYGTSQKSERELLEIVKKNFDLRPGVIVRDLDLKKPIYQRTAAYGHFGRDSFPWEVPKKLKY

Compound: Cn1cc2c(n1)c(=O)n(-c1cccnc1C1CC1)c1nc(C(F)(F)F)ccc21 (single isomer, unassigned) [Compound B213]
- IC50 [1, 7]: < 200 nM
- IC50 [1, 8]: 25 nM
- IC50 [2, 9]: < 500 nM
- IC50 [2, 10]: 21.8 nM
- IC50 [3, 11]: 500 to 2000 nM
- IC50 [3, 12]: 1740 nM
- IC50 [4, 13]: 200 to 1000 nM
- IC50 [4, 14]: 206 nM

Compound: CCn1nc2c(=O)n(-c3cccnc3)c3cc(Cl)ccc3c2c1F [Compound B33]
- IC50 [1, 7]: 1000 to 3000 nM
- IC50 [1, 8]: 2650 nM
- IC50 [2, 9]: 500 to 2000 nM
- IC50 [2, 10]: 1100 nM
- IC50 [3, 11]: ≥ 2000 nM
- IC50 [3, 12]: > 2000 nM
- IC50 [4, 13]: > 3000 nM
- IC50 [4, 14]: 4880 nM
- IC50 [5, 15]: < 100 nM
- IC50 ([5]; read-out: MAT2A Inhibition): 25.6 nM

Compound: NC(=O)CC1N=c2c(c3ccc(Cl)cc3n(-c3cccnc3)c2=O)=N1 (stereo not shown) [Compound B36]
- IC50 [1, 7]: 1000 to 3000 nM
- IC50 [1, 8]: 2730 nM
- IC50 [2, 9]: ≥ 2000 nM
- IC50 [2, 10]: > 2000 nM
- IC50 [3, 11]: ≥ 2000 nM
- IC50 [3, 12]: > 2000 nM
- IC50 [4, 13]: < 200 nM
- IC50 [4, 14]: 24.7 nM
- IC50 [5, 15]: < 100 nM
- IC50 ([5]; read-out: MAT2A Inhibition): 55.2 nM

Compound: CNC(=O)CC1N=c2c(c3ccc(Cl)cc3n(-c3cccnc3)c2=O)=N1 (stereo not shown) [Compound B37]
- IC50 [1, 7]: 200 to 1000 nM
- IC50 [1, 8]: 888 nM
- IC50 [2, 9]: ≥ 2000 nM
- IC50 [2, 10]: 6430 nM
- IC50 [3, 11]: ≥ 2000 nM
- IC50 [3, 12]: > 2000 nM
- IC50 [4, 13]: 1000 to 3000 nM
- IC50 [4, 14]: 1260 nM
- IC50 [5, 15]: < 100 nM
- IC50 ([5]; read-out: MAT2A Inhibition): 51.7 nM

Compound: O=c1c2nn(C(F)F)cc2c2ccc(Cl)cc2n1-c1cccnc1 [Compound B55]
- IC50 [1, 7]: < 200 nM
- IC50 [1, 8]: 118 nM
- IC50 [2, 9]: < 500 nM
- IC50 [2, 10]: 83 nM
- IC50 [3, 11]: ≥ 2000 nM
- IC50 [3, 12]: 3570 nM
- IC50 [4, 13]: 1000 to 3000 nM
- IC50 [4, 14]: 1520 nM
- IC50 [5, 15]: < 100 nM
- IC50 ([5]; read-out: MAT2A Inhibition): 18 nM
- IC50 [6, 16]: < 500 nM
- IC50 [6, 17]: 104 nM

Compound: Cc1ncccc1-n1c(=O)c2[nH]ncc2c2ccc(C3CC3)nc21 [Compound B95]
- IC50 [1, 7]: < 200 nM
- IC50 [1, 8]: 4 nM
- IC50 [2, 9]: < 500 nM
- IC50 [2, 10]: 18.8 nM
- IC50 [3, 11]: 500 to 2000 nM
- IC50 [3, 12]: 621 nM
- IC50 [4, 13]: > 3000 nM
- IC50 [4, 14]: > 3000 nM
- IC50 [5, 15]: < 100 nM
- IC50 ([5]; read-out: MAT2A Inhibition): 48.2 nM

Compound: Cc1ncccc1-n1c(=O)c2n[nH]cc2c2ccc(C(F)(F)F)nc21 [Compound B96]
- IC50 [1, 7]: < 200 nM
- IC50 [1, 8]: 5.2 nM
- IC50 [2, 9]: < 500 nM
- IC50 [2, 10]: 27.2 nM
- IC50 [3, 11]: < 500 nM
- IC50 [3, 12]: 293 nM
- IC50 [4, 13]: < 200 nM
- IC50 [4, 14]: 158 nM
- IC50 [5, 15]: < 100 nM
- IC50 ([5]; read-out: MAT2A Inhibition): 29.4 nM
- IC50 [6, 16]: < 500 nM
- IC50 [6, 17]: 5.14 nM

Compound: Cc1ncccc1-n1c(=O)c2[nH]ncc2c2ccc(OC(F)(F)F)cc21 [Compound B101]
- IC50 [1, 7]: < 200 nM
- IC50 [1, 8]: 48.7 nM
- IC50 [2, 9]: < 500 nM
- IC50 [2, 10]: 50.4 nM
- IC50 [3, 11]: ≥ 2000 nM
- IC50 [3, 12]: > 2000 nM
- IC50 [4, 13]: > 3000 nM
- IC50 [4, 14]: > 3000 nM
- IC50 [5, 15]: < 100 nM
- IC50 ([5]; read-out: MAT2A Inhibition): 59.7 nM

Compound: Cc1ncccc1-n1c(=O)c2nn(C)c(C)c2c2ccc(C(F)(F)F)nc21 [Compound B189]
- IC50 [1, 7]: < 200 nM
- IC50 [1, 8]: 12.3 nM
- IC50 [2, 9]: < 500 nM
- IC50 [2, 10]: 49.2 nM
- IC50 [3, 11]: < 500 nM
- IC50 [3, 12]: 488 nM
- IC50 [4, 13]: 200 to 1000 nM
- IC50 [4, 14]: 561 nM
- IC50 [5, 15]: < 100 nM
- IC50 ([5]; read-out: MAT2A Inhibition): 39.7 nM
- IC50 [6, 16]: < 500 nM
- IC50 [6, 17]: 13.6 nM

Compound: Cc1ncccc1-n1c(=O)c2nn(CC3CC3)cc2c2ccc(C(F)(F)F)nc21 [Compound B191]
- IC50 [1, 7]: < 200 nM
- IC50 [1, 8]: 29.3 nM
- IC50 [2, 9]: < 500 nM
- IC50 [2, 10]: 95.6 nM
- IC50 [3, 11]: 500 to 2000 nM
- IC50 [3, 12]: 942 nM
- IC50 [4, 13]: 1000 to 3000 nM
- IC50 [4, 14]: 1290 nM
- IC50 [5, 15]: < 100 nM
- IC50 ([5]; read-out: MAT2A Inhibition): 41 nM
- IC50 [6, 16]: < 500 nM
- IC50 [6, 17]: 35.6 nM
